MIC and Activity data for ten compounds are collected here from ChEMBL document CHEMBL3856262, “A diastereoselective synthesis of tetrahydro- and dihydro-pyrido[2,3-c]coumarin derivatives via a one-pot three-component Povarov reaction catalyzed by bismuth(III) chloride” (2016).

Values after ≈ are worked out from the molar mass of the structure shown.

The first test relates to Micrococcus luteus. The test is described as follows: Antimicrobial activity against Micrococcus luteus MTCC 2470 incubated for 24 hrs by well diffusion assay. It is filed as functional. To be noted: MTCC 2470, 24 h.
For `O=c1oc2ccccc2c2c1N[C@H](c1ccc([N+](=O)[O-])cc1)[C@H]1CCCO[C@@H]21`, the MIC (in general, the lowest concentration that inhibits growth of the organism) is above 100 µg/mL.

The compound `Nc1cc2ccccc2oc1=O` yielded an MIC above 100 µg/mL.

As for `COc1cc(OC)cc([C@@H]2C[C@@H](c3ccc4ccccc4c3)c3c(c(=O)oc4ccccc34)N2)c1`, the MIC was above 100 µg/mL.

Take `O=C(O)c1cn(C2CC2)c2cc(N3CCNCC3)c(F)cc2c1=O` [CIPROFLOXACIN]: the MIC was determined as 0.58 µg/mL (≈ 1.75 µM).

`CC(C)OC(=O)N1c2c(c(=O)oc3ccccc23)N[C@H](c2ccc(C(F)(F)F)cc2)N1C(=O)OC(C)C` showed an MIC above 100 µg/mL.

In turn, `O=c1oc2ccccc2c2c1N[C@H](c1ccc(Cl)cc1)[C@H]1CCCO[C@@H]21` registered an MIC above 100 µg/mL.

In turn, `CC(C)OC(=O)N1c2c(c(=O)oc3ccccc23)N[C@H](c2ccc(C#N)cc2)N1C(=O)OC(C)C` yielded an MIC above 100 µg/mL.

The next test deals with Staphylococcus aureus. The test is described as follows: Antimicrobial activity against Staphylococcus aureus MTCC 96 incubated for 24 hrs by well diffusion assay. The format is functional. The settings on record: MTCC 96, 24 h. In general terms: A growth-free zone around the sample is the usual read-out of agar diffusion tests.
`O=c1oc2ccccc2c2c1N[C@H](c1ccc([N+](=O)[O-])cc1)[C@H]1CCCO[C@@H]21` registered an MIC above 100 µg/mL.

On to `Nc1cc2ccccc2oc1=O`, for which the MIC was above 100 µg/mL.

As for `COc1cc(OC)cc([C@@H]2C[C@@H](c3ccc4ccccc4c3)c3c(c(=O)oc4ccccc34)N2)c1`, the MIC was above 100 µg/mL.

`O=C(O)c1cn(C2CC2)c2cc(N3CCNCC3)c(F)cc2c1=O` [CIPROFLOXACIN] yielded an MIC of 0.58 µg/mL (≈ 1.75 µM).

`CC(C)OC(=O)N1c2c(c(=O)oc3ccccc23)N[C@H](c2ccc(C(F)(F)F)cc2)N1C(=O)OC(C)C` displayed an MIC above 100 µg/mL.

The compound `O=c1oc2ccccc2c2c1N[C@H](c1ccc(Cl)cc1)[C@H]1CCCO[C@@H]21` gave an MIC above 100 µg/mL.

`CC(C)OC(=O)N1c2c(c(=O)oc3ccccc23)N[C@H](c2ccc(C#N)cc2)N1C(=O)OC(C)C` came in with an MIC above 100 µg/mL.

For another test, the system named is Staphylococcus aureus. Kind of test: Antimicrobial activity against Staphylococcus aureus MLS-16 […] incubated for 24 hrs by well diffusion assay.
Settings: not given
The format is functional.
In turn, `O=c1oc2ccccc2c2c1N[C@H](c1ccc([N+](=O)[O-])cc1)[C@H]1CCCO[C@@H]21` registered an MIC above 100 µg/mL.

`Nc1cc2ccccc2oc1=O` registered an MIC above 100 µg/mL.

In the case of `COc1cc(OC)cc([C@@H]2C[C@@H](c3ccc4ccccc4c3)c3c(c(=O)oc4ccccc34)N2)c1`, the MIC is above 100 µg/mL.

`O=C(O)c1cn(C2CC2)c2cc(N3CCNCC3)c(F)cc2c1=O` [CIPROFLOXACIN]: 0.58 µg/mL (≈ 1.75 µM) was the least that counted as inhibitory (MIC).

`CC(C)OC(=O)N1c2c(c(=O)oc3ccccc23)N[C@H](c2ccc(C(F)(F)F)cc2)N1C(=O)OC(C)C`: the MIC is above 100 µg/mL.

For the compound `O=c1oc2ccccc2c2c1N[C@H](c1ccc(Cl)cc1)[C@H]1CCCO[C@@H]21`, the MIC is above 100 µg/mL.

As for `CC(C)OC(=O)N1c2c(c(=O)oc3ccccc23)N[C@H](c2ccc(C#N)cc2)N1C(=O)OC(C)C`, the MIC was above 100 µg/mL.

In another test the test system is Bacillus subtilis. Kind of test: Antimicrobial activity against Bacillus subtilis MTCC 121 incubated for 24 hrs by well diffusion assay. It is filed as functional. The settings on record: MTCC 121, 24 h.
In turn, `O=c1oc2ccccc2c2c1N[C@H](c1ccc([N+](=O)[O-])cc1)[C@H]1CCCO[C@@H]21` came in with an MIC above 100 µg/mL.

Consider `Nc1cc2ccccc2oc1=O`, for which the MIC was above 100 µg/mL.

`COc1cc(OC)cc([C@@H]2C[C@@H](c3ccc4ccccc4c3)c3c(c(=O)oc4ccccc34)N2)c1` displayed an MIC above 100 µg/mL.

For `O=C(O)c1cn(C2CC2)c2cc(N3CCNCC3)c(F)cc2c1=O` [CIPROFLOXACIN], inhibition of growth (MIC) required 0.58 µg/mL (≈ 1.75 µM).

`CC(C)OC(=O)N1c2c(c(=O)oc3ccccc23)N[C@H](c2ccc(C(F)(F)F)cc2)N1C(=O)OC(C)C` had an MIC above 100 µg/mL.

The compound `O=c1oc2ccccc2c2c1N[C@H](c1ccc(Cl)cc1)[C@H]1CCCO[C@@H]21` displayed an MIC above 100 µg/mL.

In turn, `CC(C)OC(=O)N1c2c(c(=O)oc3ccccc23)N[C@H](c2ccc(C#N)cc2)N1C(=O)OC(C)C` registered an MIC above 100 µg/mL.

In the next test the test system is Escherichia coli. The test is described as follows: Antimicrobial activity against Escherichia coli MTCC 739 incubated for 24 hrs by well diffusion assay. The settings on record: MTCC 739, 24 h. The format is functional.
Consider `O=c1oc2ccccc2c2c1N[C@H](c1ccc([N+](=O)[O-])cc1)[C@H]1CCCO[C@@H]21`, for which the MIC was above 100 µg/mL.

Regarding `Nc1cc2ccccc2oc1=O`, the minimum inhibitory concentration (MIC) is above 100 µg/mL.

In turn, `COc1cc(OC)cc([C@@H]2C[C@@H](c3ccc4ccccc4c3)c3c(c(=O)oc4ccccc34)N2)c1` registered an MIC above 100 µg/mL.

`O=C(O)c1cn(C2CC2)c2cc(N3CCNCC3)c(F)cc2c1=O` [CIPROFLOXACIN] returned an MIC of 0.58 µg/mL (≈ 1.75 µM).

As for `CC(C)OC(=O)N1c2c(c(=O)oc3ccccc23)N[C@H](c2ccc(C(F)(F)F)cc2)N1C(=O)OC(C)C`, the MIC was above 100 µg/mL.

As for `O=c1oc2ccccc2c2c1N[C@H](c1ccc(Cl)cc1)[C@H]1CCCO[C@@H]21`, the MIC is above 100 µg/mL.

`CC(C)OC(=O)N1c2c(c(=O)oc3ccccc23)N[C@H](c2ccc(C#N)cc2)N1C(=O)OC(C)C` returned a minimum inhibitory concentration (MIC) above 100 µg/mL.

The subject of another test is Pseudomonas aeruginosa. Kind of test: Antimicrobial activity against Pseudomonas aeruginosa MTCC 2453 incubated for 24 hrs by well diffusion assay. It is filed as functional. To be noted: MTCC 2453, 24 h.
In the case of `O=c1oc2ccccc2c2c1N[C@H](c1ccc([N+](=O)[O-])cc1)[C@H]1CCCO[C@@H]21`, the MIC is above 100 µg/mL.

As to `Nc1cc2ccccc2oc1=O`, the MIC is above 100 µg/mL.

In the case of `COc1cc(OC)cc([C@@H]2C[C@@H](c3ccc4ccccc4c3)c3c(c(=O)oc4ccccc34)N2)c1`, the MIC was above 100 µg/mL.

On to `O=C(O)c1cn(C2CC2)c2cc(N3CCNCC3)c(F)cc2c1=O` [CIPROFLOXACIN], for which the MIC worked out at 0.58 µg/mL (≈ 1.75 µM).

Regarding `CC(C)OC(=O)N1c2c(c(=O)oc3ccccc23)N[C@H](c2ccc(C(F)(F)F)cc2)N1C(=O)OC(C)C`, the MIC was above 100 µg/mL.

As for `O=c1oc2ccccc2c2c1N[C@H](c1ccc(Cl)cc1)[C@H]1CCCO[C@@H]21`, the MIC was above 100 µg/mL.

`CC(C)OC(=O)N1c2c(c(=O)oc3ccccc23)N[C@H](c2ccc(C#N)cc2)N1C(=O)OC(C)C` gave an MIC above 100 µg/mL.

Another test relates to Raoultella planticola. The test is described as follows: Antimicrobial activity against Klebsiella planticola MTCC 530 incubated for 24 hrs by well diffusion assay. The format is functional. To be noted: MTCC 530, 24 h.
Regarding `O=c1oc2ccccc2c2c1N[C@H](c1ccc([N+](=O)[O-])cc1)[C@H]1CCCO[C@@H]21`, the MIC was above 100 µg/mL.

`Nc1cc2ccccc2oc1=O` returned an MIC above 100 µg/mL.

As for `COc1cc(OC)cc([C@@H]2C[C@@H](c3ccc4ccccc4c3)c3c(c(=O)oc4ccccc34)N2)c1`, the MIC is above 100 µg/mL.

For the compound `O=C(O)c1cn(C2CC2)c2cc(N3CCNCC3)c(F)cc2c1=O` [CIPROFLOXACIN], the MIC came out at 0.58 µg/mL (≈ 1.75 µM).

Consider `CC(C)OC(=O)N1c2c(c(=O)oc3ccccc23)N[C@H](c2ccc(C(F)(F)F)cc2)N1C(=O)OC(C)C`, for which the MIC is above 100 µg/mL.

On to `O=c1oc2ccccc2c2c1N[C@H](c1ccc(Cl)cc1)[C@H]1CCCO[C@@H]21`, for which the MIC was above 100 µg/mL.

`CC(C)OC(=O)N1c2c(c(=O)oc3ccccc23)N[C@H](c2ccc(C#N)cc2)N1C(=O)OC(C)C` came in with an MIC above 100 µg/mL.

The test system of another test is Candida albicans. Kind of test: Antimicrobial activity against Candida albicans MTCC 3017 incubated for 24 hrs by well diffusion assay. To be noted: MTCC 3017, 24 h. It is filed as functional.
For the compound `O=c1oc2ccccc2c2c1N[C@H](c1ccc([N+](=O)[O-])cc1)[C@H]1CCCO[C@@H]21`, the MIC was above 100 µg/mL.

As to `Nc1cc2ccccc2oc1=O`, the MIC is above 100 µg/mL.

The compound `COc1cc(OC)cc([C@@H]2C[C@@H](c3ccc4ccccc4c3)c3c(c(=O)oc4ccccc34)N2)c1` had an MIC above 100 µg/mL.

Compound `Clc1ccc(COC(Cn2ccnc2)c2ccc(Cl)cc2Cl)c(Cl)c1` (stereo not drawn) [MICONAZOLE] returned an MIC of 9.37 µg/mL (≈ 22.5 µM).

`CC(C)OC(=O)N1c2c(c(=O)oc3ccccc23)N[C@H](c2ccc(C(F)(F)F)cc2)N1C(=O)OC(C)C` displayed an MIC above 100 µg/mL.

As for `O=c1oc2ccccc2c2c1N[C@H](c1ccc(Cl)cc1)[C@H]1CCCO[C@@H]21`, the MIC was above 100 µg/mL.

In the case of `CC(C)OC(=O)N1c2c(c(=O)oc3ccccc23)N[C@H](c2ccc(C#N)cc2)N1C(=O)OC(C)C`, the MIC was above 100 µg/mL.

System in a further test: not listed separately
The test is described as follows: Antioxidant activity assessed as DPPH radical scavenging activity at 0.5 mM incubated for 40 mins in dark condition.
Settings: not given
It is filed as functional.
Consider `Cc1cc(C(C)(C)C)c(O)c(C(C)(C)C)c1`, for which the Activity came out at 39.8%.

For the compound `Cc1c(C)c2c(c(C)c1O)CC[C@@](C)(CCC[C@H](C)CCC[C@H](C)CCCC(C)C)O2`, the Activity amounted to 47.7%.

System in another test: not listed separately
The test is described as follows: Antioxidant activity assessed as DPPH radical scavenging activity at 1 mM incubated for 40 mins in dark condition. The format is functional.
Settings: not given
In general terms: The DPPH test is a chemical assay of radical scavenging.
For `Cc1cc(C(C)(C)C)c(O)c(C(C)(C)C)c1`, the Activity turned out to be 68.5%.

`Nc1cc2ccccc2oc1=O`: the Activity amounted to 2.77%.

As for `CC(C)OC(=O)N1c2c(c(=O)oc3ccccc23)N[C@H](c2ccc(C(F)(F)F)cc2)N1C(=O)OC(C)C`, the Activity worked out at 1.06%.

On to `CC(C)OC(=O)N1c2c(c(=O)oc3ccccc23)N[C@H](c2ccc(C#N)cc2)N1C(=O)OC(C)C`, for which the Activity is 0.88%.

With `Cc1c(C)c2c(c(C)c1O)CC[C@@](C)(CCC[C@H](C)CCC[C@H](C)CCCC(C)C)O2`, the Activity amounted to 81.7%.

System in another test: not listed separately
Kind of test: Antioxidant activity assessed as DPPH radical scavenging activity at 2 mM incubated for 40 mins in dark condition. The format is functional.
Settings: not given
Consider `Cc1cc(C(C)(C)C)c(O)c(C(C)(C)C)c1`, for which the Activity was determined as 78.5%.

Consider `Nc1cc2ccccc2oc1=O`, for which the Activity amounted to 6.08%.

Take `CC(C)OC(=O)N1c2c(c(=O)oc3ccccc23)N[C@H](c2ccc(C(F)(F)F)cc2)N1C(=O)OC(C)C`: the Activity was 6.8%.

Turning to `CC(C)OC(=O)N1c2c(c(=O)oc3ccccc23)N[C@H](c2ccc(C#N)cc2)N1C(=O)OC(C)C`, the Activity was found to be 3.14%.

In the case of `Cc1c(C)c2c(c(C)c1O)CC[C@@](C)(CCC[C@H](C)CCC[C@H](C)CCCC(C)C)O2`, the Activity is 86.4%.
